The results in this text go back to ChEMBL document CHEMBL3785024 (Br J Clin Pharmacol, 2004).

What all share (assay type): ADME, organism-based
The nature of series [1]: Cmax in healthy human subjects at 40 mg with water administered as single dose measured upto 24 hrs by LC-MS analysis. On the set-up: dose 40 mg. Particulars: in vivo, oral.
Series [2] is described as follows: Elimination half life in healthy human subjects at 40 mg with water administered as single dose measured upto 24 hrs by LC-MS analysis. Conditions: in vivo, oral, read-out: beta t1/2 (converted).
Series [3] can be described thus: AUC (0 to 24 hrs) in healthy human subjects at 40 mg with water administered as single dose measured upto 24 hrs by LC-MS analysis. On the set-up: time < 24 hr, dose 40 mg. Conditions: in vivo, oral.
Series [4] deals with Homo sapiens. Kind of series: Cmax in healthy human subjects assessed as simvastatin acid at 40 mg with water administered as single dose measured upto 24 hrs by LC-MS analysis. On the set-up: dose 40 mg. Conditions: in vivo, po.
The test system of series [5] is Homo sapiens. Briefly: Elimination half life in healthy human subjects assessed as simvastatin acid at 40 mg with water administered as single dose measured upto 24 hrs by LC-MS analysis. Particulars: in vivo.
Series [6] concerns Homo sapiens. Kind of series: AUC (0 to 24 hrs) in healthy human subjects assessed as simvastatin acid at 40 mg with water administered as single dose measured upto 24 hrs by LC-MS analysis. On the set-up: dose 40 mg, time < 24 hr. Particulars: in vivo, po.
Series [7] is described as follows: Cmax in healthy human subjects at 40 mg with 200 ml grape fruit juice drug administered as single dose on day 3 of grape fruit juice challenge measured upto 24 hrs by LC-MS analysis. Conditions: in vivo, oral. On the set-up: dose 40 mg.
Series [8] is described as follows: Elimination half life in healthy human subjects at 40 mg with 200 ml grape fruit juice drug administered as single dose on day 3 of grape fruit juice challenge measured upto 24 hrs by LC-MS analysis. Particulars: in vivo, oral, read-out: beta t1/2 (converted).
Series [9] can be described thus: AUC (0 to 24 hrs) in healthy human subjects at 40 mg with 200 ml grape fruit juice drug administered as single dose on day 3 of grape fruit juice challenge measured upto 24 hrs by LC-MS analysis. Further details: dose 40 mg, time < 24 hr. Conditions: in vivo, oral.
Series [10] deals with Homo sapiens. Briefly: Cmax in healthy human subjects assessed as simvastatin acid at 40 mg with 200 ml grape fruit juice drug administered as single dose on day 3 of grape fruit juice challenge measured upto 24 hrs by LC-MS analysis. Further details: dose 40 mg. Particulars: in vivo.
Series [11] has as its system Homo sapiens. Kind of series: Elimination half life in healthy human subjects assessed as simvastatin acid at 40 mg with 200 ml grape fruit juice drug administered as single dose on day 3 of grape fruit juice challenge measured upto 24 hrs by LC-MS analysis. Conditions: in vivo.
In series [12] the test system is Homo sapiens. Kind of series: AUC (0 to 24 hrs) in healthy human subjects assessed as simvastatin acid at 40 mg with 200 ml grape fruit juice drug administered as single dose on day 3 of grape fruit juice challenge measured upto 24 hrs by LC-MS analysis. On the set-up: time < 24 hr, dose 40 mg. Particulars: in vivo.

SMILES strings stand for the structures.

In the case of `CCC(C)(C)C(=O)O[C@H]1C[C@@H](C)C=C2C=C[C@H](C)[C@H](CC[C@@H]3C[C@@H](O)CC(=O)O3)[C@H]21` [SIMVASTATIN], the Cmax (usually the peak of the concentration-time curve) stood at 7.3 ng/mL in series [1], 2.6 ng/mL with Homo sapiens [4], 28.5 ng/mL in [7] and 11.1 ng/mL in the series with Homo sapiens [10]. Besides, the figures for the half-life in series [2] and in [8] were 2.7 h and 2 h, respectively. Also, the AUC(0-t) (usually exposure summed from dosing to a finite time, without extrapolation to infinity) at 24 h was determined as 31.6 ng·h/mL in [3] and 112 ng·h/mL in series [9]. For the same compound, the entries for the “beta t1/2” value with Homo sapiens [5] and in the series with Homo sapiens [11] were 2.9 h and 2.4 h, respectively. The results for the AUC in the series on Homo sapiens [6] and in the series on Homo sapiens [12] were 18.5 ng·h/mL and 62 ng·h/mL, respectively.
